Results from ChEMBL document CHEMBL1154782, “Discovery of Trp-His and His-Arg analogues as new structural classes of short antimicrobial peptides” (J Med Chem, 2009).
Values after ≈ are worked out from the molar mass of the structure shown. Where a SMILES comes first, the peptide text is derived from it. The star is where a group is joined. Boc = CC(C)(C)OC(=O)*; NHBn = c1ccc(CN*)cc1

Assays:
Staphylococcus aureus [1] = assay: Antibacterial activity against methicillin-resistant Staphylococcus aureus DSM 50128509 after 15 to 18 hrs under aerobic condition by modified broth microdilution method; assay type: functional
Staphylococcus aureus [2] = assay: Antibacterial activity against methicillin-resistant Staphylococcus aureus DSM 50128509; assay type: functional, organism-based
[3] = test system: Staphylococcus epidermidis; assay: Antibacterial activity against methicillin-resistant Staphylococcus epidermidis DSM 50160384 after 15 to 18 hrs under aerobic condition by modified broth microdilution method; assay type: functional
[4] = test system: Staphylococcus epidermidis; assay: Antibacterial activity against methicillin-resistant Staphylococcus epidermidis DSM 50160384; assay type: functional, organism-based
Escherichia coli [5] = assay: Antibacterial activity against Escherichia coli ATCC 35218 after 15 to 18 hrs under aerobic condition by modified broth microdilution method; assay type: functional
Klebsiella pneumoniae [6] = assay: Antibacterial activity against Klebsiella pneumoniae ATCC 700603 after 15 to 18 hrs under aerobic condition by modified broth microdilution method; assay type: functional
Klebsiella pneumoniae [7] = assay: Antibacterial activity against Klebsiella pneumoniae ATCC 700603; assay type: functional, organism-based
Pseudomonas aeruginosa [8] = assay: Antibacterial activity against Pseudomonas aeruginosa ATCC 9027 after 15 to 18 hrs under aerobic condition by modified broth microdilution method; assay type: functional
Candida albicans [9] = assay: Antifungal activity against Candida albicans ATCC 10231 after 15 to 18 hrs under aerobic condition by modified broth microdilution method; assay type: functional
Candida albicans [10] = assay: Antifungal activity against Candida albicans ATCC 10231; assay type: functional, organism-based
L929 = assay: Cytotoxicity against mouse L929 cells up to 200 ug/mL after 5 days by MTT assay; assay type: cell-based; conditions: l929, 120 h
Escherichia coli [11] = assay: Antibacterial activity against Escherichia coli ATCC 35218; assay type: functional, organism-based
Pseudomonas aeruginosa [12] = assay: Antibacterial activity against Pseudomonas aeruginosa ATCC 9027; assay type: functional, organism-based

Row | SMILES | MIC (Staphylococcus aureus [1]) | IC50 (Staphylococcus aureus [2]) | MIC [3] | IC50 [4] | MIC (Escherichia coli [5]) | MIC (Klebsiella pneumoniae [6]) | IC50 (Klebsiella pneumoniae [7]) | MIC (Pseudomonas aeruginosa [8]) | MIC (Candida albicans [9]) | IC50 (Candida albicans [10]) | Activity (L929) | IC50 (Escherichia coli [11]) | IC50 (Pseudomonas aeruginosa [12])
1 | N[C@@H](Cc1c[nH]c2ccccc12)C(=O)N[C@@H](Cc1c[nH]c(C2CCCCC2)n1)C(=O)NCc1ccccc1 | 10 µg/mL (≈ 19.5 µM) | 4.8 µg/mL (≈ 9.36 µM) | 50 µg/mL (≈ 97.5 µM) | 7.54 µg/mL (≈ 14.7 µM) | > 200 µg/mL | 50 µg/mL (≈ 97.5 µM) | 17.4 µg/mL (≈ 33.9 µM) | > 200 µg/mL | 100 µg/mL (≈ 195 µM) | 8.41 µg/mL (≈ 16.4 µM) | Non-toxic | – | –
2 | CC(C)(C)OC(=O)N[C@@H](Cc1c[nH]c(C(C)(C)C)n1)C(=O)N[C@@H](CCCNC(=N)N)C(=O)NCc1ccccc1 | 200 µg/mL (≈ 359 µM) | 17.5 µg/mL (≈ 31.5 µM) | > 200 µg/mL | – | 100 µg/mL (≈ 180 µM) | > 200 µg/mL | – | > 200 µg/mL | 200 µg/mL (≈ 359 µM) | 33.1 µg/mL (≈ 59.5 µM) | Non-toxic | 12 µg/mL (≈ 21.6 µM) | –
3 | CC(C)(C)OC(=O)N[C@@H](Cc1c[nH]c(C2CCC2)n1)C(=O)N[C@@H](CCCNC(=N)N)C(=O)NCc1ccccc1 | > 200 µg/mL | – | 200 µg/mL (≈ 361 µM) | 19.3 µg/mL (≈ 34.8 µM) | > 200 µg/mL | 200 µg/mL (≈ 361 µM) | 20.8 µg/mL (≈ 37.5 µM) | > 200 µg/mL | > 200 µg/mL | – | Non-toxic | – | –
4 | COC(=O)[C@H](CCCNC(=N)N)NC(=O)[C@@H](N)Cc1c[nH]c(C(C)(C)C)n1 | 20 µg/mL (≈ 52.4 µM) | 5.39 µg/mL (≈ 14.1 µM) | 20 µg/mL (≈ 52.4 µM) | 2.53 µg/mL (≈ 6.63 µM) | 200 µg/mL (≈ 524 µM) | 200 µg/mL (≈ 524 µM) | 10.5 µg/mL (≈ 27.6 µM) | > 200 µg/mL | 100 µg/mL (≈ 262 µM) | 9.65 µg/mL (≈ 25.3 µM) | Non-toxic | 18.5 µg/mL (≈ 48.4 µM) | –
5 | CC(C)(C)OC(=O)N[C@@H](Cc1c[nH]c2ccccc12)C(=O)N[C@@H](Cc1c[nH]cn1)C(=O)NCc1ccccc1 (Boc-Trp-His-NHBn) | > 200 µg/mL | – | 200 µg/mL (≈ 377 µM) | 15.6 µg/mL (≈ 29.4 µM) | > 200 µg/mL | 200 µg/mL (≈ 377 µM) | 21.2 µg/mL (≈ 40 µM) | 200 µg/mL (≈ 377 µM) | 200 µg/mL (≈ 377 µM) | 9.7 µg/mL (≈ 18.3 µM) | Non-toxic | – | 40.7 µg/mL (≈ 76.7 µM)
6 | COC(=O)[C@H](CCCNC(=N)N)NC(=O)[C@H](Cc1c[nH]c(C2CCCCC2)n1)NC(=O)OC(C)(C)C | 200 µg/mL (≈ 394 µM) | 10.1 µg/mL (≈ 19.9 µM) | 100 µg/mL (≈ 197 µM) | 10 µg/mL (≈ 19.7 µM) | 100 µg/mL (≈ 197 µM) | > 200 µg/mL | – | 200 µg/mL (≈ 394 µM) | 100 µg/mL (≈ 197 µM) | 9.44 µg/mL (≈ 18.6 µM) | Non-toxic | 4.93 µg/mL (≈ 9.71 µM) | 27.5 µg/mL (≈ 54.2 µM)
7 | COC(=O)[C@H](Cc1c[nH]c(C2CCCCC2)n1)NC(=O)[C@H](Cc1c[nH]c2ccccc12)NC(=O)OC(C)(C)C | 200 µg/mL (≈ 372 µM) | 14 µg/mL (≈ 26 µM) | 50 µg/mL (≈ 93 µM) | 6.29 µg/mL (≈ 11.7 µM) | 200 µg/mL (≈ 372 µM) | > 200 µg/mL | – | > 200 µg/mL | 200 µg/mL (≈ 372 µM) | 17.7 µg/mL (≈ 32.9 µM) | Non-toxic | 20.9 µg/mL (≈ 38.8 µM) | –
8 | COC(=O)[C@H](Cc1c[nH]c(C23CC4CC(CC(C4)C2)C3)n1)NC(=O)[C@@H](N)Cc1c[nH]c2ccccc12 | 20 µg/mL (≈ 40.8 µM) | 2.3 µg/mL (≈ 4.7 µM) | 20 µg/mL (≈ 40.8 µM) | 4.59 µg/mL (≈ 9.37 µM) | > 200 µg/mL | 200 µg/mL (≈ 408 µM) | 24.4 µg/mL (≈ 49.9 µM) | > 200 µg/mL | > 200 µg/mL | – | Non-toxic | – | –
9 | CC(C)c1nc(C[C@H](NC(=O)OC(C)(C)C)C(=O)N[C@@H](CCCNC(=N)N)C(=O)NCc2ccccc2)c[nH]1 | 100 µg/mL (≈ 184 µM) | 17.9 µg/mL (≈ 33.1 µM) | 100 µg/mL (≈ 184 µM) | 12.7 µg/mL (≈ 23.3 µM) | 200 µg/mL (≈ 369 µM) | > 200 µg/mL | – | 200 µg/mL (≈ 369 µM) | > 200 µg/mL | – | Non-toxic | 23.7 µg/mL (≈ 43.7 µM) | 45.1 µg/mL (≈ 83.2 µM)
10 | COC(=O)[C@H](CCCNC(=N)N)NC(=O)[C@@H](N)Cc1c[nH]c(C23CC4CC(CC(C4)C2)C3)n1 | 10 µg/mL (≈ 21.8 µM) | 3.67 µg/mL (≈ 7.99 µM) | 20 µg/mL (≈ 43.5 µM) | 4.28 µg/mL (≈ 9.31 µM) | > 200 µg/mL | 200 µg/mL (≈ 435 µM) | 19.4 µg/mL (≈ 42.2 µM) | 200 µg/mL (≈ 435 µM) | > 200 µg/mL | – | Non-toxic | – | 35.5 µg/mL (≈ 77.2 µM)
11 | N=C(N)NCCC[C@H](NC(=O)[C@@H](N)Cc1c[nH]c(C2CCCCC2)n1)C(=O)NCc1ccccc1 | 20 µg/mL (≈ 41.4 µM) | 2.06 µg/mL (≈ 4.27 µM) | 5 µg/mL (≈ 10.4 µM) | 1 µg/mL (≈ 2.07 µM) | 200 µg/mL (≈ 414 µM) | 200 µg/mL (≈ 414 µM) | 23.5 µg/mL (≈ 48.7 µM) | > 200 µg/mL | 200 µg/mL (≈ 414 µM) | 18 µg/mL (≈ 37.3 µM) | Non-toxic | 17.5 µg/mL (≈ 36.3 µM) | –
12 | NC[C@@H]1O[C@H](O[C@H]2[C@@H](O)[C@H](O[C@@H]3[C@@H](O)[C@H](N)C[C@H](N)[C@H]3O[C@H]3O[C@H](CN)[C@@H](O)[C@H](O)[C@H]3N)O[C@@H]2CO)[C@H](N)[C@@H](O)[C@@H]1O [FRAMYCETIN] | – | – | – | – | – | – | 0.6 µg/mL (≈ 0.976 µM) | – | – | – | – | – | –
13 | COC(=O)[C@H](Cc1c[nH]c(C2CCC2)n1)NC(=O)[C@@H](N)Cc1c[nH]c2ccccc12 | 200 µg/mL (≈ 488 µM) | 9.54 µg/mL (≈ 23.3 µM) | 200 µg/mL (≈ 488 µM) | 14.5 µg/mL (≈ 35.5 µM) | 200 µg/mL (≈ 488 µM) | > 200 µg/mL | – | > 200 µg/mL | 200 µg/mL (≈ 488 µM) | 18.2 µg/mL (≈ 44.6 µM) | Non-toxic | 9.48 µg/mL (≈ 23.2 µM) | –
